# Assay results published in US20260034124A1, “NOVEL SALTS AND CRYSTALS” (INTRA-CELLULAR THERAPIES, INC., priority 2022, published 2026).
# Where two headings read alike, the source gives them in different places.
# Tests used:
# [1] = Aqueous solubility determination, saturated solution shaken in water, LC; format: physicochemical; conditions: slurried 24 hours, filtered
# Procedure: The aqueous solubility of the successfully reproduced salts is determined by shaking a saturated solution in water. The solubility at pH 7.4 is determined by shaking a saturated solution in a phosphate buffered system. The samples are prepared by the addition of a known amount of water (100-200 μl) and subsequent slurrying with the solid for 24 hours. All samples are then filtered using syringe filters to remove undissolved solids, and then the filtrates are diluted with methanol/acetonitrile (1:1 v/v). LC analysis of the samples is performed, and a calibration line is used for the determination of the solubilities.
# H1 histaminergic = H1 histaminergic (Homo sapiens, UniProt P35367); conditions: cited from earlier work
# Chain of H1 histaminergic (P35367 whole entry): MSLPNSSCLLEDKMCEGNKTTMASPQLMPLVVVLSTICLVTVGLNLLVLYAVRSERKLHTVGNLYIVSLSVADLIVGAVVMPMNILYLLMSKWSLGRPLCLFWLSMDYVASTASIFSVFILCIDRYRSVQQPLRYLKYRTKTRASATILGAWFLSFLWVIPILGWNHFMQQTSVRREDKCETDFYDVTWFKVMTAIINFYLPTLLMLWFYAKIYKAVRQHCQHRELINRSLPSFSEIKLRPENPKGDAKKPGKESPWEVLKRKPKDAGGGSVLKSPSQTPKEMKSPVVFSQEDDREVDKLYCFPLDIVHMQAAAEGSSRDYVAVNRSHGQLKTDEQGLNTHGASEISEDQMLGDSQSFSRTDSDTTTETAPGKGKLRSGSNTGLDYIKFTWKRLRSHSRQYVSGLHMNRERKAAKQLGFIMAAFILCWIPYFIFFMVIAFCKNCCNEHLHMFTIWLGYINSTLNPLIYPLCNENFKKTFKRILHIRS
# 5-HT2C = target: T1, 5-HT2C (Homo sapiens, UniProt P28335); conditions: cited from earlier work
# T1 sequence (P28335 33-458): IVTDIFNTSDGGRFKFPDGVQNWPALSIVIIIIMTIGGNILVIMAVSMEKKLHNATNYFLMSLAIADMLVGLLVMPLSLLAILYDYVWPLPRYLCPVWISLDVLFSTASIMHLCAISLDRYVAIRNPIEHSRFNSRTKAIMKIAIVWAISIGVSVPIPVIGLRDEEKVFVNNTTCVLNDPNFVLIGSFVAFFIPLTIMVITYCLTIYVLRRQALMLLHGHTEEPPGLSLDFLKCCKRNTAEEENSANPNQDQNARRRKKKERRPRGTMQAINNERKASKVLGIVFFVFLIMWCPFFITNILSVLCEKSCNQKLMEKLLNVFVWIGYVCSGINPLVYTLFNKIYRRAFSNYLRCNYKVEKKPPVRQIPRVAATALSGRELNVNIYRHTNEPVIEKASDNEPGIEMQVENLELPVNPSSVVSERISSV
# muscarinic = conditions: cited from earlier work
# [2] = free base form, cited from earlier work
SMILES,Aqueous Solubility [1] [µg/mL],further results
"CCCCCCCCc1ccc(S(=O)(=O)O)cc1.CN1CCN2c3c(cccc31)[C@@H]1CN(CCCC(=O)c3ccc(F)cc3)CC[C@@H]12 [4-octylbenzenesulfonate salt, lumateperone 4-octylbenzenesulfonate salt]",6,
"CC(C)(C)c1ccc(S(=O)(=O)O)cc1.CN1CCN2c3c(cccc31)[C@@H]1CN(CCCC(=O)c3ccc(F)cc3)CC[C@@H]12 [4-t-butylbenzenesulfonate salt, lumateperone 4-tert-butylbenzenesulfonate salt]",770,
"CCCc1ccc(S(=O)(=O)O)cc1.CN1CCN2c3c(cccc31)[C@@H]1CN(CCCC(=O)c3ccc(F)cc3)CC[C@@H]12 [Example 4, lumateperone 4-propylbenzenesulfonate salt]",1620,
"CCCCCS(=O)(=O)O.CN1CCN2c3c(cccc31)C1CN(CCCC(=O)c3ccc(F)cc3)CCC12 (stereo not shown) [Example 8, lumateperone pentane-1-sulfonic salt]",18770,
"CCCCCCCS(=O)(=O)O.CN1CCN2c3c(cccc31)C1CN(CCCC(=O)c3ccc(F)cc3)CCC12 (stereo not shown) [Example 9, lumateperone heptane-1-sulfonic salt]",4300,
"CN1CCN2c3c(cccc31)[C@@H]1CN(CCCC(=O)c3ccc(F)cc3)CC[C@@H]12 [Lumateperone, 4-((6bR,10aS)-3-methyl-2,3,6b,9,10,10a-hexahydro-1H-pyrido[3′,4′: 4,5]pyrrolo[1,2,3-de]quinoxalin-8(7H)-yl)-1-(4-fluorophenyl)-1-butanone]",,binding to H1 histaminergic receptors (H1 histaminergic): negligible binding; binding to 5-HT2C receptors (5-HT2C): negligible binding; binding to muscarinic receptors (muscarinic): negligible binding; aqueous solubility of free base (in words) ([2]; listed as ITI-007): poor aqueous solubility; aqueous solubility of free base (in words) ([2]; listed as Lumateperone free base): very low water-solubility
